Calls of active or inactive are those of the source. No cut-off for these calls is given here.
Experiments:
[1] = test system: Hs-578T; test: Growth inhibition of human Hs578T cells incubated for 48 hrs by sulforhodamine B assay; type: functional
[2] = test system: NCI-H460; test: Growth inhibition of human NCI-H460 cells at 10^-5 M cells incubated for 48 hrs by sulforhodamine B assay relative to control; type: functional
[3] = test system: SN12C; test: Growth inhibition of human SN12C cells incubated for 48 hrs by sulforhodamine B assay; type: functional
[4] = test system: OVCAR-4; test: Growth inhibition of human OVCAR4 cells incubated for 48 hrs by sulforhodamine B assay; type: functional; details: OVCAR-4, 48 h
[5] = test system: LOX IMVI; test: Growth inhibition of human LOXIMVI cells incubated for 48 hrs by sulforhodamine B assay; type: functional
[6] = test system: C6; test: Antiproliferative activity against rat C6 cells assessed as decrease in cell viability measured after 48 hrs by MTT assay; type: functional, cell-based
[7] = biological target: T1, Dihydrofolate reductase (Homo sapiens, UniProt P00374); test: Inhibition of human dihydrofolate reductase using dihydrofolic acid as substrate preincubated for 1 hr in presence of NADPH followed by substrate addition by enzyme immunoassay
T1 sequence (P00374 whole entry): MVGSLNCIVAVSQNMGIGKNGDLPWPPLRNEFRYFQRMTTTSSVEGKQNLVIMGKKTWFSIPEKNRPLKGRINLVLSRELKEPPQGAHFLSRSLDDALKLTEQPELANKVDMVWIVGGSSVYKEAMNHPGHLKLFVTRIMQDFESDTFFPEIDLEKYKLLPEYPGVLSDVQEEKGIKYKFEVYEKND

[8] = test system: UACC-62; test: Growth inhibition of human UACC62 cells incubated for 48 hrs by sulforhodamine B assay; type: functional; details: UACC-62, 48 h
[9] = test system: C6; test: Induction of morphological changes in rat C6 cells assessed as increase in total length of processes measured after 24 hrs by inverted microscopy analysis relative to control; type: functional
[10] = test system: SK-MEL-28; test: Growth inhibition of human SK-MEL-28 cells incubated for 48 hrs by sulforhodamine B assay; type: functional; details: SK-MEL-28, 48 h
[11] = test system: RPMI-8226; test: Growth inhibition of human RPMI8226 cells incubated for 48 hrs by sulforhodamine B assay; type: functional; details: RPMI-8226, 48 h
[12] = test system: TK-10; test: Growth inhibition of human TK10 cells incubated for 48 hrs by sulforhodamine B assay; type: functional; details: TK-10, 48 h
[13] = test system: NCI-H23; test: Growth inhibition of human NCI-H23 cells incubated for 48 hrs by sulforhodamine B assay; type: functional; details: NCI-H23, 48 h
[14] = test system: RXF 393; test: Growth inhibition of human RXF393 cells incubated for 48 hrs by sulforhodamine B assay; type: functional; details: RXF 393, 48 h
[15] = test system: MDA-MB-468; test: Growth inhibition of human MDA-MB-468 cells at 10^-5 M incubated for 48 hrs by sulforhodamine B assay relative to control; type: functional; details: MDA-MB-468, 48 h, read-out: GI
[16] = test system: KM12; test: Growth inhibition of human KM12 cells incubated for 48 hrs by sulforhodamine B assay; type: functional; details: KM12, 48 h
[17] = test system: IGROV-1; test: Growth inhibition of human IGROV1 cells at 10^-5 M incubated for 48 hrs by sulforhodamine B assay relative to control; type: functional; details: IGROV-1, 48 h, read-out: GI
[18] = test system: IGROV-1; test: Growth inhibition of human IGROV1 cells incubated for 48 hrs by sulforhodamine B assay; type: functional; details: IGROV-1, 48 h
[19] = test system: T47D; test: Growth inhibition of human T47D cells incubated for 48 hrs by sulforhodamine B assay; type: functional
[20] = test system: NCI-H460; test: Growth inhibition of human NCI-H460 cells incubated for 48 hrs by sulforhodamine B assay; type: functional; details: NCI-H460, 48 h
[21] = test system: CCRF-CEM; test: Growth inhibition of human CCRF-CEM cells incubated for 48 hrs by sulforhodamine B assay; type: functional
[22] = test system: ACHN; test: Growth inhibition of human ACHN cells incubated for 48 hrs by sulforhodamine B assay; type: functional
[23] = test system: MDA-MB-435; test: Growth inhibition of human MDA-MB-435 cells incubated for 48 hrs by sulforhodamine B assay; type: functional; details: MDA-MB-435, 48 h
[24] = test system: CAKI-1; test: Growth inhibition of human Caki1 cells incubated for 48 hrs by sulforhodamine B assay; type: functional; details: CAKI-1, 48 h
[25] = test system: C6; test: Cell cycle arrest in rat C6 cells assessed as cell population at G0/G1 phase measured after 24 hrs by propidium iodide staining based flow cytometry analysis; type: functional
[26] = test system: SF-268; test: Growth inhibition of human SF268 cells incubated for 48 hrs by sulforhodamine B assay; type: functional; details: SF-268, 48 h
[27] = test system: NCI-H226; test: Growth inhibition of human NCI-H226 cells incubated for 48 hrs by sulforhodamine B assay; type: functional; details: NCI-H226, 48 h
[28] = test system: Panel NCI-60 (60 carcinoma cell lines); test: Therapeutic index, ratio of LC50 for human NCI60 cells to GI50 for human NCI60 cells measured after 48 hrs by sulforhodamine B assay; type: functional
[29] = test system: K562; test: Growth inhibition of human K562 cells incubated for 48 hrs by sulforhodamine B assay; type: functional; details: K562, 48 h
[30] = test system: HOP-62; test: Growth inhibition of human HOP62 cells incubated for 48 hrs by sulforhodamine B assay; type: functional; details: HOP-62, 48 h
[31] = read-out: pLC50 (the source's name) (converted)
[32] = read-out: LC50 (the source's name)

O=C(OC[C@@H]1CO1)c1cccc2c(=O)c3ccccc3[nH]c12
GI50 [1]: 2.04 µM | CC50 [1, 31]: > 100 µM | TGI ([1]; read-out: pTGI (converted)): 5.89 µM | growth inhibition (GI) [2]: 100% | GI50 [3]: 1.82 µM | CC50 [3, 31]: 41.7 µM | TGI ([3]; read-out: pTGI (converted)): 7.08 µM | GI50 [4]: 2.4 µM | CC50 [4, 31]: > 100 µM | TGI ([4]; read-out: pTGI (converted)): 7.94 µM | GI50 ([5]; read-out: pGI50 (converted)): 1.51 µM | CC50 [5, 31]: 6.61 µM | TGI ([5]; read-out: pTGI (converted)): 3.16 µM | inhibition [6]: Dose-dependent effect | IC50 ([6]; C6, 48 h): 0.25 to 1.5 µM | IC50 [7]: 0.01 µM | GI50 [8]: 1.58 µM | CC50 [8, 31]: 6.03 µM | TGI ([8]; read-out: pTGI (converted)): 3.09 µM | Activity [9]: 85.53% | GI50 [10]: 2.4 µM | CC50 [10, 31]: > 100 µM | TGI ([10]; read-out: pTGI (converted)): 5.75 µM | GI50 [11]: 1.95 µM | CC50 [11, 31]: > 100 µM | TGI ([11]; read-out: pTGI (converted)): 6.61 µM | GI50 [12]: 2.34 µM | CC50 [12, 31]: > 100 µM | TGI ([12]; read-out: pTGI (converted)): 6.76 µM | GI50 [13]: 1.41 µM | CC50 [13, 31]: > 100 µM | TGI ([13]; read-out: pTGI (converted)): 4.47 µM | GI50 [14]: 1.38 µM | CC50 [14, 31]: 5.75 µM | TGI ([14]; read-out: pTGI (converted)): 2.82 µM | inhibition of growth at 10 µM [15]: 100% | GI50 [16]: 2.19 µM | CC50 [16, 31]: > 100 µM | TGI ([16]; read-out: pTGI (converted)): 7.08 µM | inhibition of growth at 10 µM [17]: 100% | GI50 [18]: 1.55 µM | CC50 [18, 31]: > 100 µM | TGI ([18]; read-out: pTGI (converted)): 5.62 µM | GI50 [19]: 2.51 µM | CC50 [19, 31]: > 100 µM | TGI ([19]; read-out: pTGI (converted)): 8.32 µM | GI50 [20]: 1.7 µM | CC50 [20, 31]: 51.3 µM | TGI ([20]; read-out: pTGI (converted)): 4.47 µM | GI50 ([21]; read-out: GI50): 0.77 µM | CC50 [21, 32]: > 100 µM | CC50 [21, 31]: > 100 µM | TGI ([21]; read-out: pTGI (converted)): 21.9 µM | GI50 ([22]; read-out: GI50): 0.89 µM | CC50 [22, 32]: > 100 µM | GI50 ([22]; read-out: pGI50 (converted)): 0.891 µM | CC50 [22, 31]: > 100 µM | TGI ([22]; read-out: pTGI (converted)): 3.89 µM | GI50 [23]: 1.62 µM | CC50 [23, 31]: 6.61 µM | TGI ([23]; read-out: pTGI (converted)): 3.24 µM | GI50 [24]: 1.82 µM | CC50 [24, 31]: > 100 µM | TGI ([24]; read-out: pTGI (converted)): 8.32 µM | Activity [25]: inactive | GI50 ([26]; read-out: pGI50 (converted)): 1.62 µM | CC50 [26, 31]: > 100 µM | TGI ([26]; read-out: pTGI (converted)): 6.03 µM | GI50 [27]: 1.58 µM | TGI ([27]; read-out: pTGI (converted)): 3.47 µM | TI [28]: 126 | GI50 [29]: 2.19 µM | CC50 [29, 31]: > 100 µM | TGI ([29]; read-out: pTGI): > 100 µM | GI50 [30]: 2.14 µM | CC50 [30, 31]: > 100 µM | TGI ([30]; read-out: pTGI (converted)): 5.89 µM
